Measured values as given in patent publication US20220370537A1, “PHARMACEUTICAL COMPOSITION AND FUNCTIONAL HEALTH FOOD FOR TREATING BENIGN PROSTATIC HYPERPLASIA INCLUDING LAURUS NOBILIS AS ACTIVE INGREDIENT, AND METHOD OF TREATING BENIGN PROSTATIC HYPERPLASIA USING THE SAME” (KOSABIO INC., priority 2020, published 2022).

How the values were obtained:
Type in all cases: in vivo, Wistar rats
[1] = tested on: benign prostatic hyperplasia (testosterone-induced prostate hypertrophy); assay: Therapeutic efficacy on benign prostatic hyperplasia: change in prostate weight and volume; settings: FINA 0.8 mg/kg orally, BPH-induced rats, therapeutic test
Experimental: (§1) Male Wistar rats at 8 weeks of age (Samtako, Korea) were acclimated. When the rats weighed about 380 g on average (19 weeks old), they were divided into groups of 7.
(§2) After removing the testis therefrom, the rats in one of the groups were allowed to revive for about 24 hours. Propionate testosterone was subcutaneously injected at a dose of 5 mg/kg into the castrated group and the normal group to induce prostate hypertrophy for 8 weeks (BPH-induced groups). After induction of prostate hypertrophy for 8 weeks, the rats were treated as follows. Along with testosterone injection, the bay leaf extracts were orally administered at predetermined doses (mg/kg) once a day (seven times a week) for 8 weeks. Separately, Finasteride, which is a commercially available therapeutic agent for benign prostatic hyperplasia, was orally administered to a positive control.
After completion of the experiment, the rats of all the experimental groups were euthanized. The prostate tissues and main organs were excised therefrom and measured for weight and volume using an electronic scale for animal weights and a caliper (mm^3) (Table 1).

[2] = tested on: benign prostatic hyperplasia (testosterone-induced prostate hypertrophy); assay: Prophylactic effect on benign prostatic hyperplasia: change in prostate weight and volume; settings: FINA 0.8 mg/kg orally, BPH-induced rats, prophylactic test
Experimental: Male Wistar rats at 8 weeks of age (Samtako, Korea) were acclimated. When the rats weighed about 320 g on average (12 weeks old), they were divided into groups of 5.
as §2, with “7” for “5”
After completion of the experiment, the rats of all the experimental groups were euthanized. The prostate tissues and main organs were excised therefrom and measured for weight and volume using an electronic scale for animal weights and a caliper (mm^3) (Table 3).

[3] = Prophylactic test: hepatotoxicity and renal function, serum biochemical index; settings: FINA 0.8 mg/kg orally
Experimental: Male Wistar rats at 8 weeks of age (Samtako, Korea) were acclimated. When the rats weighed about 320 g on average (12 weeks old), they were divided into groups of 5. After removing the testis therefrom, the rats in one of the groups were allowed to revive for about 24 hours. Propionate testosterone was subcutaneously injected at a dose of 7 mg/kg into the castrated group and the normal group to induce prostate hypertrophy for 8 weeks (BPH-induced groups). After induction of prostate hypertrophy for 8 weeks, the rats were treated as follows. Along with testosterone injection, the bay leaf extracts were orally administered at predetermined doses (mg/kg) once a day (seven times a week) for 8 weeks. Separately, Finasteride, which is a commercially available therapeutic agent for benign prostatic hyperplasia, was orally administered to a positive control. For use in biochemical index analysis, blood samples were taken from the rats of all the groups through abdominal veins. The blood sample was coagulated for about 30 min and centrifuged at 10,000 rpm for 5 min to separate sera. The sera thus obtained were measured for liver function index (AST and ALT), lipoprotein levels (total cholesterol (T-CHO), HDL cholesterol (HDL-C), LDL cholesterol (LDL-C)), and kidney function index (creatine), using a biochemical analyzer (AU480, Beckman Coulter, USA) (Table 4).

[4] = Therapeutic test: hepatotoxicity and renal function, serum biochemical index; settings: FINA 0.8 mg/kg orally
Experimental: as §1, §2
For use in biochemical index analysis, blood samples were taken from the rats of all the groups through abdominal veins. The blood sample was coagulated for about 30 min and centrifuged at 10,000 rpm for 5 min to separate sera. The sera thus obtained were measured for liver function index (AST and ALT), lipoprotein levels (total cholesterol (T-CHO), HDL cholesterol (HDL-C), LDL cholesterol (LDL-C)), and kidney function index (creatine), using a biochemical analyzer (AU480, Beckman Coulter, USA) (Table 2).

With `CC(C)(C)NC(=O)[C@H]1CC[C@H]2[C@@H]3CC[C@H]4NC(=O)C=C[C@]4(C)[C@H]3CC[C@]12C` [Finasteride] as the compound, how does the Kidney weight [1] read?
The Kidney weight was 0.65 g.

And the Liver weight [1]?
The Liver weight was 10.36 g.

And the Prostate volume [1]?
Its Prostate volume is 3459.59 mm^3.

And the “Prostate weight (b)” value [1]?
The value was 1.16 g.

And the “Ratio (b/a*100)” value [1]?
The value was 0.28%.

And the “Weight (a)” value [1]?
Its value is 426.6 g.

And the Kidney weight [2]?
The Kidney weight was 0.58 g.

And the Liver weight [2]?
The Liver weight was 8.09 g.

What about the Prostate volume [2] of the same compound?
The Prostate volume was 4626.31 mm^3.

And the “Prostate weight (b)” value [2]?
The value was 1.43 g.

What about the “Ratio (b/a*100)” value [2] of the same compound?
The value was 0.43%.

And the “Weight (a)” value [2]?
Its value is 328.3 g.

What about the ALT [3] of the same compound?
The ALT was 51.6 U/L.

And the AST [3]?
The AST was 140.4 U/L.

What about the CRE [3] of the same compound?
The CRE was 0.2 mg/dL.

And the HDL [3]?
The HDL was 43.3 mg/dL.

And the LDL [3]?
The LDL was 17.0 mg/dL.

What about the T-CHO [3] of the same compound?
The T-CHO was 60.6 mg/dL.

What about the ALT [4] of the same compound?
The ALT was 50.3 U/L.

What about the AST [4] of the same compound?
Its AST is 83.1 U/L.

And the CRE [4]?
The CRE was 0.3 mg/dL.

What about the HDL [4] of the same compound?
Its HDL is 43.6 mg/dL.

And the LDL [4]?
The LDL was 14.1 mg/dL.

What about the T-CHO [4] of the same compound?
The T-CHO was 70.7 mg/dL.
